Laboratory results reported in PubChem BioAssay AID212 (DTP/NCI, 2004).
Several values for one entry are separate records, joined by “and”; a condition that tells them apart may be missing. Equal entries are not always repeated. Records with an inconclusive call do not appear.

Tested on: BDF1 mice, colon carcinoma 38 sc, T/C %
Test: NCI In Vivo Anticancer Drug Screen. Data for tumor model Colon Carcinoma 38 (subcutaneous) in B6D2F1 (BDF1) mice
Summary of the method: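 Mice with transplanted tumors are treated with compound or vehicle. Survival or tumor size is then measured in both groups. The ratio of treated to control gives the reported figure.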

[1] = endpoint: median tumor weight (est.), dose: 25.0 mg/kg/injection, schedule: Q07DX002 (ip), vehicle: saline with Tween-80, higher = larger tumour
[2] = endpoint: median tumor weight (est.), dose: 50.0 mg/kg/injection, schedule: Q07DX002 (ip), vehicle: saline with Tween-80, higher = larger tumour
[3] = endpoint: median tumor weight (est.), dose: 400.0 mg/kg/injection, schedule: Q07DX002 (ip), vehicle: saline with Tween-80, higher = larger tumour

## Nc1nc(F)nc2c1ncn2C1OC(COP(=O)(O)O)C(O)C1O (stereo not given)
endpoint: median tumor weight (est.), dose: 12.5 mg/kg/injection, schedule: Q07DX002 (ip), vehicle: saline, higher = larger tumour
  T/C: 184 % of control
endpoint: median tumor weight (est.), dose: 50.0 mg/kg/injection, schedule: Q07DX002 (ip), vehicle: saline, higher = larger tumour
  T/C: 87 % of control
endpoint: median tumor weight (est.), dose: 100.0 mg/kg/injection, schedule: Q07DX002 (ip), vehicle: saline, higher = larger tumour
  T/C: 116 % of control and 93 % of control
endpoint: median tumor weight (est.), dose: 200.0 mg/kg/injection, schedule: Q07DX002 (ip), vehicle: saline, higher = larger tumour
  T/C: 82 % of control and 101 % of control
endpoint: median tumor weight (est.), dose: 400.0 mg/kg/injection, schedule: Q07DX002 (ip), vehicle: saline, higher = larger tumour
  T/C: 76 % of control and 83 % of control

## Nc1ccn(C2CC(O)C(CO)O2)c(=O)n1 (stereo not given)
endpoint: median tumor weight (est.), dose: 42.19 mg/kg/injection, schedule: Q07DX002 (ip), vehicle: water, higher = larger tumour
  T/C: 124 % of control
endpoint: median tumor weight (est.), dose: 84.38 mg/kg/injection, schedule: Q07DX002 (ip), vehicle: water, higher = larger tumour
  T/C: 79 % of control
endpoint: median tumor weight (est.), dose: 337.5 mg/kg/injection, schedule: Q07DX002 (ip), vehicle: water, higher = larger tumour
  T/C: 110 % of control

## CS(=O)(=O)OCCCNCCCOS(C)(=O)=O
endpoint: median tumor weight (est.), dose: 9.3 mg/kg/injection, schedule: Q07DX003 (ip), vehicle: saline, higher = larger tumour
  T/C: 43 % of control
endpoint: median tumor weight (est.), dose: 18.75 mg/kg/injection, schedule: Q07DX003 (ip), vehicle: saline, higher = larger tumour
  T/C: 73 % of control
endpoint: median tumor weight (est.), dose: 37.5 mg/kg/injection, schedule: Q07DX003 (ip), vehicle: saline, higher = larger tumour
  T/C: 58 % of control
endpoint: median tumor weight (est.), dose: 75.0 mg/kg/injection, schedule: Q07DX003 (ip), vehicle: saline, higher = larger tumour
  T/C: 36 % of control

## O=C1NC(=O)NC(C(=O)O)N1
endpoint: median tumor weight (est.), dose: 56.25 mg/kg/injection, schedule: Q01DX001 (ip), vehicle: DMSO, higher = larger tumour
  T/C: 90 % of control
endpoint: median tumor weight (est.), dose: 56.25 mg/kg/injection, schedule: Q07DX002 (ip), vehicle: DMSO, higher = larger tumour
  T/C: 122 % of control
endpoint: median tumor weight (est.), dose: 112.5 mg/kg/injection, schedule: Q01DX001 (ip), vehicle: DMSO, higher = larger tumour
  T/C: 101 % of control
endpoint: median tumor weight (est.), dose: 112.5 mg/kg/injection, schedule: Q07DX002 (ip), vehicle: DMSO, higher = larger tumour
  T/C: 121 % of control
endpoint: median tumor weight (est.), dose: 225.0 mg/kg/injection, schedule: Q01DX001 (ip), vehicle: DMSO, higher = larger tumour
  T/C: 97 % of control
endpoint: median tumor weight (est.), dose: 225.0 mg/kg/injection, schedule: Q07DX002 (ip), vehicle: DMSO, higher = larger tumour
  T/C: 75 % of control
endpoint: median tumor weight (est.), dose: 450.0 mg/kg/injection, schedule: Q01DX001 (ip), vehicle: DMSO, higher = larger tumour
  T/C: 97 % of control
endpoint: median tumor weight (est.), dose: 450.0 mg/kg/injection, schedule: Q07DX002 (ip), vehicle: DMSO, higher = larger tumour
  T/C: 101 % of control
endpoint: median tumor weight (est.), dose: 900.0 mg/kg/injection, schedule: Q01DX001 (ip), vehicle: DMSO, higher = larger tumour
  T/C: 71 % of control
endpoint: median tumor weight (est.), dose: 900.0 mg/kg/injection, schedule: Q07DX002 (ip), vehicle: DMSO, higher = larger tumour
  T/C: 108 % of control
endpoint: median tumor weight (est.), dose: 1800.0 mg/kg/injection, schedule: Q07DX002 (ip), vehicle: DMSO, higher = larger tumour
  T/C: 112 % of control

## O=C1OCC2(C(=O)O)C(=O)OCC12 (stereo not given)
endpoint: median tumor weight (est.), dose: 3.12 mg/kg/injection, schedule: Q07DX002 (ip), vehicle: saline with Tween-80, higher = larger tumour
  T/C: 124 % of control
endpoint: median tumor weight (est.), dose: 6.25 mg/kg/injection, schedule: Q07DX002 (ip), vehicle: saline with Tween-80, higher = larger tumour
  T/C: 87 % of control
[1]
  T/C: 70 % of control and 86 % of control
[2]
  T/C: 109 % of control
[3]
  T/C: 158 % of control

## C[N+](C)(C)c1cc2c(nn1)Nc1ccccc1S2
endpoint: median tumor weight (est.), dose: 6.25 mg/kg/injection, schedule: Q07DX002 (ip), vehicle: Klucel (hydroxypropylcellulose) (HPC), higher = larger tumour
  T/C: 109 % of control
endpoint: median tumor weight (est.), dose: 12.5 mg/kg/injection, schedule: Q07DX002 (ip), vehicle: Klucel (hydroxypropylcellulose) (HPC), higher = larger tumour
  T/C: 122 % of control
endpoint: median tumor weight (est.), dose: 25.0 mg/kg/injection, schedule: Q07DX002 (ip), vehicle: Klucel (hydroxypropylcellulose) (HPC), higher = larger tumour
  T/C: 89 % of control and 90 % of control
endpoint: median tumor weight (est.), dose: 50.0 mg/kg/injection, schedule: Q07DX002 (ip), vehicle: Klucel (hydroxypropylcellulose) (HPC), higher = larger tumour
  T/C: 97 % of control
endpoint: median tumor weight (est.), dose: 100.0 mg/kg/injection, schedule: Q07DX002 (ip), vehicle: Klucel (hydroxypropylcellulose) (HPC), higher = larger tumour
  T/C: 89 % of control

## Nc1ncnc2c1ncn2C1OC(COS(N)(=O)=O)C(O)C1O (stereo not given)
endpoint: median survival time, dose: 0.25 mg/kg/injection, schedule: Q02DX004 (sc), vehicle: saline, higher = longer survival
  T/C: 100 % of control
endpoint: median survival time, dose: 0.5 mg/kg/injection, schedule: Q02DX004 (sc), vehicle: saline, higher = longer survival
  T/C: 100 % of control

## COC(=Nc1ccccc1)SSC(C)C
[1]
  T/C: 99 % of control
[2]
  T/C: 84 % of control
endpoint: median tumor weight (est.), dose: 100.0 mg/kg/injection, schedule: Q07DX002 (ip), vehicle: saline with Tween-80, higher = larger tumour
  T/C: 88 % of control
endpoint: median tumor weight (est.), dose: 200.0 mg/kg/injection, schedule: Q07DX002 (ip), vehicle: saline with Tween-80, higher = larger tumour
  T/C: 100 % of control
[3]
  T/C: 96 % of control
